Reference: the NIST ThermoML archive (doi:10.1016/j.jct.2016.03.003)

Test: mn = molality of the nth substance listed, in mol/kg
Settings: 101.3 kPa, Liquid, Vibrating tube method

C[C@H](O)C(=O)[O-].C[C@H](O)C(=O)[O-].C[C@H](O)C(=O)[O-].[Al+3] [aluminium L-lactate] + O
Settings	mass density [kg/m3]
278.15 K, m1 = 0.0016	1000.31
278.15 K, m1 = 0.0033	1000.54
278.15 K, m1 = 0.0065	1000.95
278.15 K, m1 = 0.016	1002.1
278.15 K, m1 = 0.0281	1003.54
278.15 K, m1 = 0.0521	1006.26
278.15 K, m1 = 0.0995	1011.5
278.15 K, m1 = 0.1996	1022.22
278.15 K, m1 = 0.3045	1032.98
278.15 K, m1 = 0.4021	1042.51
278.15 K, m1 = 0.5059	1052.17
278.15 K, m1 = 0.5991	1060.59
278.15 K, m1 = 0.7147	1070.67
283.15 K, m1 = 0.0016	1000.07
283.15 K, m1 = 0.0033	1000.29
283.15 K, m1 = 0.0065	1000.7
283.15 K, m1 = 0.016	1001.82
283.15 K, m1 = 0.0281	1003.24
283.15 K, m1 = 0.0521	1005.92
283.15 K, m1 = 0.0995	1011.1
283.15 K, m1 = 0.1996	1021.72
283.15 K, m1 = 0.3045	1032.35
283.15 K, m1 = 0.4021	1041.79
283.15 K, m1 = 0.5059	1051.34
283.15 K, m1 = 0.5991	1059.68
283.15 K, m1 = 0.7147	1069.65
288.15 K, m1 = 0.0016	999.46
288.15 K, m1 = 0.0033	999.69
288.15 K, m1 = 0.0065	1000.09
288.15 K, m1 = 0.016	1001.21
288.15 K, m1 = 0.0281	1002.6
288.15 K, m1 = 0.0521	1005.25
288.15 K, m1 = 0.0995	1010.37
288.15 K, m1 = 0.1996	1020.89
288.15 K, m1 = 0.3045	1031.43
288.15 K, m1 = 0.4021	1040.77
288.15 K, m1 = 0.5059	1050.24
288.15 K, m1 = 0.5991	1058.5
288.15 K, m1 = 0.7147	1068.38
293.15 K, m1 = 0.0016	998.56
293.15 K, m1 = 0.0033	998.78
293.15 K, m1 = 0.0065	999.18
293.15 K, m1 = 0.016	1000.27
293.15 K, m1 = 0.0281	1001.67
293.15 K, m1 = 0.0521	1004.3
293.15 K, m1 = 0.0995	1009.39
293.15 K, m1 = 0.1996	1019.81
293.15 K, m1 = 0.3045	1030.26
293.15 K, m1 = 0.4021	1039.52
293.15 K, m1 = 0.5059	1048.92
293.15 K, m1 = 0.5991	1057.11
293.15 K, m1 = 0.7147	1066.89
298.15 K, m1 = 0.0016	997.37
298.15 K, m1 = 0.0033	997.6
298.15 K, m1 = 0.0065	997.99
298.15 K, m1 = 0.016	999.09
298.15 K, m1 = 0.0281	1000.46
298.15 K, m1 = 0.0521	1003.09
298.15 K, m1 = 0.0995	1008.13
298.15 K, m1 = 0.1996	1018.48
298.15 K, m1 = 0.3045	1028.85
298.15 K, m1 = 0.4021	1038.07
298.15 K, m1 = 0.5059	1047.37
298.15 K, m1 = 0.5991	1055.51
298.15 K, m1 = 0.7147	1065.25
303.15 K, m1 = 0.0016	996
303.15 K, m1 = 0.0033	996.22
303.15 K, m1 = 0.0065	996.61
303.15 K, m1 = 0.016	997.67
303.15 K, m1 = 0.0281	999.04
303.15 K, m1 = 0.0521	1001.64
303.15 K, m1 = 0.0995	1006.64
303.15 K, m1 = 0.1996	1016.92
303.15 K, m1 = 0.3045	1027.23
303.15 K, m1 = 0.4021	1036.37
303.15 K, m1 = 0.5059	1045.62
303.15 K, m1 = 0.5991	1053.7
303.15 K, m1 = 0.7147	1063.36
308.15 K, m1 = 0.0016	994.37
308.15 K, m1 = 0.0033	994.59
308.15 K, m1 = 0.0065	994.98
308.15 K, m1 = 0.016	996.04
308.15 K, m1 = 0.0281	997.4
308.15 K, m1 = 0.0521	999.99
308.15 K, m1 = 0.0995	1004.96
308.15 K, m1 = 0.1996	1015.17
308.15 K, m1 = 0.3045	1025.41
308.15 K, m1 = 0.4021	1034.51
308.15 K, m1 = 0.5059	1043.7
308.15 K, m1 = 0.5991	1051.73
308.15 K, m1 = 0.7147	1061.35
313.15 K, m1 = 0.0016	992.55
313.15 K, m1 = 0.0033	992.76
313.15 K, m1 = 0.0065	993.14
313.15 K, m1 = 0.016	994.21
313.15 K, m1 = 0.0281	995.56
313.15 K, m1 = 0.0521	998.12
313.15 K, m1 = 0.0995	1003.06
313.15 K, m1 = 0.1996	1013.23
313.15 K, m1 = 0.3045	1023.41
313.15 K, m1 = 0.4021	1032.44
313.15 K, m1 = 0.5059	1041.59
313.15 K, m1 = 0.5991	1049.59
313.15 K, m1 = 0.7147	1059.14
318.15 K, m1 = 0.0016	990.54
318.15 K, m1 = 0.0033	990.75
318.15 K, m1 = 0.0065	991.13
318.15 K, m1 = 0.016	992.2
318.15 K, m1 = 0.0281	993.53
318.15 K, m1 = 0.0521	996.09
318.15 K, m1 = 0.0995	1001
318.15 K, m1 = 0.1996	1011.1
318.15 K, m1 = 0.3045	1021.23
318.15 K, m1 = 0.4021	1030.23
318.15 K, m1 = 0.5059	1039.33
318.15 K, m1 = 0.5991	1047.3
318.15 K, m1 = 0.7147	1056.79
323.15 K, m1 = 0.0016	988.37
323.15 K, m1 = 0.0033	988.56
323.15 K, m1 = 0.0065	988.95
323.15 K, m1 = 0.016	990
323.15 K, m1 = 0.0281	991.34
323.15 K, m1 = 0.0521	993.87
323.15 K, m1 = 0.0995	998.76
323.15 K, m1 = 0.1996	1008.81
323.15 K, m1 = 0.3045	1018.9
323.15 K, m1 = 0.4021	1027.86
323.15 K, m1 = 0.5059	1036.92
323.15 K, m1 = 0.5991	1044.84
323.15 K, m1 = 0.7147	1054.31
328.15 K, m1 = 0.0016	986.02
328.15 K, m1 = 0.0033	986.21
328.15 K, m1 = 0.0065	986.59
328.15 K, m1 = 0.016	987.65
328.15 K, m1 = 0.0281	988.97
328.15 K, m1 = 0.0521	991.49
328.15 K, m1 = 0.0995	996.36
328.15 K, m1 = 0.1996	1006.37
328.15 K, m1 = 0.3045	1016.42
328.15 K, m1 = 0.4021	1025.32
328.15 K, m1 = 0.5059	1034.36
328.15 K, m1 = 0.5991	1042.24
328.15 K, m1 = 0.7147	1051.67
333.15 K, m1 = 0.0016	983.53
333.15 K, m1 = 0.0033	983.72
333.15 K, m1 = 0.0065	984.09
333.15 K, m1 = 0.016	985.14
333.15 K, m1 = 0.0281	986.48
333.15 K, m1 = 0.0521	988.97
333.15 K, m1 = 0.0995	993.82
333.15 K, m1 = 0.1996	1003.79
333.15 K, m1 = 0.3045	1013.8
333.15 K, m1 = 0.4021	1022.68
333.15 K, m1 = 0.5059	1031.67
333.15 K, m1 = 0.5991	1039.53
333.15 K, m1 = 0.7147	1048.93
338.15 K, m1 = 0.0016	980.88
338.15 K, m1 = 0.0033	981.06
338.15 K, m1 = 0.0065	981.45
338.15 K, m1 = 0.016	982.49
338.15 K, m1 = 0.0281	983.81
338.15 K, m1 = 0.0521	986.3
338.15 K, m1 = 0.0995	991.13
338.15 K, m1 = 0.1996	1001.06
338.15 K, m1 = 0.3045	1011.04
338.15 K, m1 = 0.4021	1019.88
338.15 K, m1 = 0.5059	1028.85
338.15 K, m1 = 0.5991	1036.68
338.15 K, m1 = 0.7147	1046.04
343.15 K, m1 = 0.0016	978.11
343.15 K, m1 = 0.0033	978.27
343.15 K, m1 = 0.0065	978.67
343.15 K, m1 = 0.016	979.71
343.15 K, m1 = 0.0281	981.02
343.15 K, m1 = 0.0521	983.51
343.15 K, m1 = 0.0995	988.33
343.15 K, m1 = 0.1996	998.2
343.15 K, m1 = 0.3045	1008.14
343.15 K, m1 = 0.4021	1017.05
343.15 K, m1 = 0.5059	1025.9
343.15 K, m1 = 0.5991	1033.73
343.15 K, m1 = 0.7147	1043.05
